Measurements taken from patent publication US20240261266A1, “BENZIMIDAZOLE COMPOUND OR SALT THEREOF, CANINE FILARIASIS CONTROL AGENT CONTAINING SAME, AND METHOD OF USE THEREOF” (NIHON NOHYAKU CO., LTD., priority 2021, published 2024).

Tested on: Canine filariae (Dirofilaria immitis) L-3 stage larvae
Experiment: Impact evaluation test on growth of canine filariae (L3 to L4)
Conditions: 168 h, read-out: growth inhibition rate (growth from L3-stage larvae to L4-stage larvae)

`CCCCC#Cc1ccc(-c2nc3c(Br)cc(Br)cc3[nH]2)o1` [Compound 1-11, 4,6-dibromo-2-(5-(1-hexynyl)-2-furyl)benzimidazole] was tested, and the inhibition at 50 ppm was ≥ 50%.
